Test results taken from patent publication US20050032873A1, “3-Amino chroman and 2-amino tetralin derivatives” (Wyeth, priority 2003, published 2005).
pEC50, pIC50, pKi: −log10 of the molar value. Like-named read-outs stand apart in the source and are kept apart here.

Legend:
[1] = molecular target: T1, serotonin transporter (Rattus norvegicus, UniProt P31652); assay: 5-HT transporter affinity: displacement of 3H-paroxetine from male rat cortical membranes; format: binding; settings: displacement of 3H-paroxetine; male rat cortical membranes; read-out: 5-HT Transporter Affinity Ki
T1 construct: displace ^3H-paroxetine from male rat cortical membranes; from tissue; host or cells: male rat cortical membranes

[2] = molecular target: T2, cloned human 5-HT1A receptors (Homo sapiens, UniProt P08908); assay: 35S-GTPγS binding assay, 5-HT1A function; format: biochemical; settings: for pEC50: agonist potency; for pIC50: antagonist potency, reversal of 8-OH-DPAT, read-out: 5-HT1A Function GTPγS IC50
T2 construct: expressed in transfected cells
T2 sequence (P08908 1-422): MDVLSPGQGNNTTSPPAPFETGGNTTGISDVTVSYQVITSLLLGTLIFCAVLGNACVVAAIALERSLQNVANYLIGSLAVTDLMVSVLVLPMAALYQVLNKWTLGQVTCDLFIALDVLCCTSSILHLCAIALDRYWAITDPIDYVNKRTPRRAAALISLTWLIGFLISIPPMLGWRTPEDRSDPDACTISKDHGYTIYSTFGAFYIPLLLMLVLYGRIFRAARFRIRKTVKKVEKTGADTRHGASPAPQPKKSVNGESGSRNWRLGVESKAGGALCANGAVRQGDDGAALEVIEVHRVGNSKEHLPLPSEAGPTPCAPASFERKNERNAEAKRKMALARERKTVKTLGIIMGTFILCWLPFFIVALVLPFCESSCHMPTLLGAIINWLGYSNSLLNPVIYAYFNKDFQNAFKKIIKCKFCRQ

[3] = molecular target: T3, 5-HT1A receptor (Homo sapiens, UniProt P08908); assay: 5-HT1A receptor affinity: displacement of [3H] 8-OH-DPAT; format: binding; parameters: expressed in transfected cells; settings: displacement of [3H] 8-OH-DPAT; CHO cells stably transfected with human 5-HT1A receptors; read-out: 5-HT1A Receptor Affinity Ki
T3 sequence (P08908 1-422): T2 sequence (P08908 1-422)

[4] = molecular target: T3, 5-HT1A receptor; assay: cAMP accumulation assay, 5-HT1A function; format: cell-based; settings: for pEC50: cells marked EC50 (agonist); for Emax: in brackets after EC50 or IC50, read-out: 5-HT1A Function cAMP (Emax); for pIC50: cells marked IC50 (antagonist), read-out: 5-HT1A Function cAMP IC50
Text: The agonist or antagonist activity at 5-HT1A receptors was established by using two different assays. […] Agonists produce an increase in binding whereas antagonists produce no increase but rather reverse the effects of the standard agonist 8-OH-DPAT. The test compound's maximum stimulatory effect is represented as the Emax, while its potency is defined by the EC50. The test compound's maximum inhibitory effect is represented as the Imax, while its potency is defined by the IC50. The second assay measured cAMP accumulation upon binding of the ligand to the 5-HT1A receptor. […] The test compound's maximum stimulatory or inhibitory effect is represented as the Emax while its potency is defined by either IC50 for an antagonist or EC50 for an agonist. [^3H]-8-OH-DPAT was used to determine maximum agonist or antagonist response in both functional assays.

[5] = maximum inhibitory effect, in brackets after IC50, read-out: 5-HT1A Function GTPγS (Imax)
[6] = maximum stimulatory effect, in brackets after EC50, read-out: 5-HT1A Function GTPγS (Emax)

T1 sequence (P31652 whole entry): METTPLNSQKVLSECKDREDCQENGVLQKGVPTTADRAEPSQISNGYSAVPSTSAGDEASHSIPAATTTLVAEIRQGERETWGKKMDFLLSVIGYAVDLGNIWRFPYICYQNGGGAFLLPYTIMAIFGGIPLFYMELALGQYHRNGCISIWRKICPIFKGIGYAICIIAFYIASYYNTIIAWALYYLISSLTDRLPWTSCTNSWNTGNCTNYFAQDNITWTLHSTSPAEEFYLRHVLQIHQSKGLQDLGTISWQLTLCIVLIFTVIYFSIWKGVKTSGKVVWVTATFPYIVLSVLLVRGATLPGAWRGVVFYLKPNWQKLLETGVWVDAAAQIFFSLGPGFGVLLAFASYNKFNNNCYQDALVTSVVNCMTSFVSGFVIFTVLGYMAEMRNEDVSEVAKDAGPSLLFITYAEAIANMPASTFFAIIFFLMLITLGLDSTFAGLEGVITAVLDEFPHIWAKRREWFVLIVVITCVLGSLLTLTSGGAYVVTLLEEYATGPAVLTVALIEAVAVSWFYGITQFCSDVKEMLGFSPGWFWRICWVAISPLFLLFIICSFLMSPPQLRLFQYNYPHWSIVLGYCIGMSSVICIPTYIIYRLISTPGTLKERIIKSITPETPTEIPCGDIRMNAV

pKi [1]	pEC50 [2]	pIC50 [2]	Emax [2, 5] [%]	Emax [2, 6] [%]	pKi [3]	pEC50 [4]	Emax [4] [%]	pIC50 [4]	Compound
7.67	7.28	5.70	72	38	8.22	7.34	77	–	CCN(CCCc1c[nH]c2ccc(Cl)cc12)C1COc2c(F)ccc(C(N)=O)c2C1 (stereo not shown) [Compound 115, 3-[[3-(5-chloro-1H-indol-3-yl)propyl](ethyl)amino]-8-fluorochromane-5-carboxamide]
6.82	7.21	6.07	45	50	8.84	8.11	80	–	CCCN(CCCc1c[nH]c2ccc(Cl)cc12)C1COc2c(F)ccc(C(N)=O)c2C1 (stereo not shown) [Compound 116, 3-[[3-(5-chloro-1H-indol-3-yl)propyl](propyl)amino]-8-fluorochromane-5-carboxamide]
7.38	–	6.87	69	–	8.83	–	0	6.77	NC(=O)c1ccc(F)c2c1CC(N(CCCc1c[nH]c3ccc(Cl)cc13)CC1CC1)CO2 (stereo not shown) [Compound 118, 3-[[3-(5-chloro-1H-indol-3-yl)propyl](cyclopropylmethyl)amino]-8-fluorochromane-5-carboxamide]
8.17	5.55	–	–	63	7.06	6.44	64	–	NC(=O)c1ccc(F)c2c1OCC(N(CCCCc1c[nH]c3ccc(F)cc13)CC1CC1)C2 (stereo not shown) [Compound 125, 3-{(cyclopropylmethyl)[4-(5-fluoro-1H-indol-3-yl)butyl]amino}-5-fluorochromane-8-carboxamide]
8.00	5.89	–	–	50	6.49	6.11	81.5	–	CCN(CCCCc1c[nH]c2ccc(F)cc12)C1COc2c(C(N)=O)ccc(F)c2C1 (stereo not shown) [Compound 127, 3-{ethyl[4-(5-fluoro-1H-indol-3-yl)butyl]amino}-5-fluorochromane-8-carboxamide]
8.17	5.03	–	–	100	6.77	6.15	75.5	–	CCCN(CCCc1c[nH]c2c(F)cc(F)cc12)C1COc2c(C(N)=O)ccc(F)c2C1 (stereo not shown) [Compound 129, 3-[[3-(5,7-difluoro-1H-indol-3-yl)propyl](propyl)amino]-5-fluorochromane-8-carboxamide]
6.78	6.10	–	–	39	7.13	7.83	72	–	NC(=O)c1ccc(F)c2c1OCC(N(CCCc1c[nH]c3c(F)cc(F)cc13)CC1CC1)C2 (stereo not shown) [Compound 130, 3-{(cyclopropylmethyl)[3-(5,7-difluoro-1H-indol-3-yl)propyl]amino}-5-fluorochromane-8-carboxamide]
7.30	5.65	–	–	98	7.02	6.95	63	–	CCN(CCCc1c[nH]c2c(F)cc(F)cc12)C1COc2c(C(N)=O)ccc(F)c2C1 (stereo not shown) [Compound 132, 3-[[3-(5,7-difluoro-1H-indol-3-yl)propyl](ethyl)amino]-5-fluorochromane-8-carboxamide]
7.55	5.30	–	–	60	7.29	6.89	53	–	NC(=O)c1cccc2c1C[C@H](NCCCc1c[nH]c3ccc(F)cc13)CO2 [Compound 133a, (3S)-3-{[3-(5-fluoro-1H-indol-3-yl)propyl]amino}chromane-5-carboxamide]
7.24	6.36	–	–	100	7.70	6.56	98	–	COC(=O)c1cccc2c1CC(NCCCc1c[nH]c3c(F)cc(F)cc13)CO2 (stereo not shown) [Compound 135, Methyl 3-{[3-(5,7-difluoro-1H-indol-3-yl)propyl]amino}chromane-5-carboxylate]
6.69	5.88	–	–	95	7.56	6.20	89	–	COC(=O)c1cccc2c1CC(N(CCCc1c[nH]c3c(F)cc(F)cc13)C1CCC1)CO2 (stereo not shown) [Compound 136, Methyl 3-{cyclobutyl[3-(5,7-difluoro-1H-indol-3-yl)propyl]amino}chromane-5-carboxylate]
8.36	5.86	–	–	100	7.50	6.28	91	–	O=C(NC1CCC1)c1cccc2c1CC(N(CCCc1c[nH]c3c(F)cc(F)cc13)C1CCC1)CO2 (stereo not shown) [Compound 143, N-cyclobutyl-3-{cyclobutyl[3-(5,7-difluoro-1H-indol-3-yl)propyl]amino}chromane-5-carboxamide]
8.26	5.12	–	–	73	6.77	5.30	100	–	O=C(NCC1CC1)c1cccc2c1CC(N(CCCc1c[nH]c3c(F)cc(F)cc13)C1CCC1)CO2 (stereo not shown) [Compound 144, 3-{cyclobutyl[3-(5,7-difluoro-1H-indol-3-yl)propyl]amino}-N-(cyclopropylmethyl)chromane-5-carboxamide]
7.79	–	5.26	100	–	6.54	–	0	6.18	CNC(=O)c1ccc(F)c2c1C[C@H](N(CCCCc1c[nH]c3ccc(F)cc13)C1CCC1)CO2 [Compound 145a, (3S)-3-{cyclobutyl[4-(5-fluoro-1H-indol-3-yl)butyl]amino}-8-fluoro-N-methylchromane-5-carboxamide]
8.06	–	5.90	100	–	8.20	–	0	6.07	CNC(=O)c1ccc(F)c2c1C[C@@H](N(CCCCc1c[nH]c3ccc(F)cc13)C1CCC1)CO2 [Compound 145b, (3R)-3-{cyclobutyl[4-(5-fluoro-1H-indol-3-yl)butyl]amino}-8-fluoro-N-methylchromane-5-carboxamide]
8.49	8.09	–	–	81	9.48	9.27	100	–	NC(=O)c1cccc2c1CC(N(CCCc1c[nH]c3ccc(F)cc13)CC1CC1)CO2 (stereo not shown) [Compound 148, 3-{(cyclopropylmethyl)[3-(5-fluoro-1H-indol-3-yl)propyl]amino}chromane-5-carboxamide]
8.03	7.35	–	–	79	8.57	8.44	70	–	CCN(CCCc1c[nH]c2ccc(F)cc12)C1COc2cccc(C(N)=O)c2C1 (stereo not shown) [Compound 149, 3-{ethyl[3-(5-fluoro-1H-indol-3-yl)propyl]amino}chromane-5-carboxamide]
6.74	–	5.66	100	–	7.70	–	0	6.26	C[C@H](CCN(C1CCC1)[C@H]1COc2c(F)ccc(C(N)=O)c2C1)c1c[nH]c2ccc(F)cc12 [Compound 152a, (3R)-3-{cyclobutyl[(3R)-3-(5-fluoro-1H-indol-3-yl)butyl]amino}-8-fluorochromane-5-carboxamide]
6.74	–	5.30	50	–	6.49	–	0	6.14	C[C@H](CCN(C1CCC1)[C@@H]1COc2c(F)ccc(C(N)=O)c2C1)c1c[nH]c2ccc(F)cc12 [Compound 152b, (3S)-3-{cyclobutyl[(3R)-3-(5-fluoro-1H-indol-3-yl)butyl]amino}-8-fluorochromane-5-carboxamide]
7.21	–	5.44	100	–	7.70	–	0	6.14	C[C@@H](CCN(C1CCC1)[C@H]1COc2c(F)ccc(C(N)=O)c2C1)c1c[nH]c2ccc(F)cc12 [Compound 153a, (3R)-3-{cyclobutyl[(3S)-3-(5-fluoro-1H-indol-3-yl)butyl]amino}-8-fluorochromane-5-carboxamide]

Compound	pKi [1]	pEC50 [2]	pIC50 [2]	Emax [2, 5] [%]	Emax [2, 6] [%]	pKi [3]	pEC50 [4]	Emax [4] [%]	pIC50 [4]
NC(=O)c1ccc(F)c2c1CC(N(CCCc1c[nH]c3ccc(Cl)cc13)C1CCC1)CO2 (stereo not shown) [Compound 117, 3-[[3-(5-chloro-1H-indol-3-yl)propyl](cyclobutyl)amino]-8-fluorochromane-5-carboxamide]	7.12	–	6.13	100	–	8.40	–	0	6.57
CCCN(CCCc1c[nH]c2ccc(F)cc12)C1COc2cccc(C(N)=O)c2C1 (stereo not shown) [Compound 150, 3-[[3-(5-fluoro-1H-indol-3-yl)propyl](propyl)amino]chromane-5-carboxamide]	7.73	7.89	–	–	74	9.03	8.91	100	–
